# Results: patent publication US12186303B2, “Feed additive for cattle comprising n-acetyl-l-tryptophan as active ingredient” (CJ CHEILJEDANG CORPORATION, priority 2018, dated 2025)
# Assays:
# Korean native steers [1] = assay: Complete blood cell count (CBC) under heat stress conditions; format: in vivo, Korean native cattle; conditions: for GRA (0-2.4) / HCT (23-33) / HGB (8.0-15.0) / LYM (2.5-7.5) / MCH (14-18) / MCHC (30-36) / MCV (40-60) / MON (0-0.84) / MPV (4.5-7.6) / PCT (0.15-0.40) / PDW (56-80) / PLT (100-800) / RBC (5.0-10.0) / RDW (16-20) / WBC (4.0-12.0): 0.1% NALT
# Text: (§1) After grouping the animals by statistical analysis of initial body weights, the animals were bred in 1.0×1.5 m^2 individual pens during the experiment period. The feed was offered based on an amount of dry matter of daily total mixed ration (TMR) per head. After 7 days of an adaptation period for N-acetyl-L-tryptophan (NALT), a mixture of 0.1% N-acetyl-L-tryptophan (NALT) and the total mixed ration was fed to individual animals every morning at 8 a.m. for 6 weeks, and water was available ad libitum. Total amounts of L-tryptophan ingested by the control and the experimental group (NALT-treated group) by feeding NALT were 6.0 g/day/head and 18.2 g/day/head, respectively. The experiment was performed such that the NALT-treated group ingested 12.2 g/day/head more L-tryptophan than the control.
# (§2) Meanwhile, results of growth performance analysis (body weight and average feed intake) and genetic analysis of loin tissue were obtained by statistically comparing and analyzing significant differences between the control and the NALT-treated group, and results of hematological analysis were obtained via statistical comparison and analysis depending on NALT treatment, experiment period (days), and interaction (treatment×days). These numerical values were expressed as average values, and a significance test was performed at the 5% level using Student's t-test by using a JMP 5.0 software package (SAS Institute Inc., Cary, NC, USA).
# (§3) Blood samples were collected from a jugular vein of each sentinel animal before offering the feed at the starting day of the experiment (week 0), the mid-point of the experiment (week 5), and the final day of the experiment (week 10) and stored in a vacutainer (Becton Dickinson, Franklin Lakes, NJ, USA). Complete blood cell count (CBC) was performed using whole blood using a VetScan HM2 (Abaxis, Union City, CA, USA), and hematological properties were identified using serum with a biochemical autoanalyzer (FUJI DRI-CHEM 7000, Fujifilm, Tokyo, Japan). In addition, total protein (TP), albumin (ALB), creatinine phosphokinase (CPK), and blood urea nitrogen (BUN), which are related to blood protein metabolism, were analyzed; triglycerides (TG) and non-esterified fatty acid (NEFA), which are related to energy metabolism, were analyzed; and sodium (Na), chlorine (CI), and potassium (K), which are blood electrolytes, were analyzed.
# Korean native steers [2] = assay: Serum hematological properties (biochemical autoanalyzer) under heat stress conditions; format: in vivo, Korean native cattle; design: GLO (globulin = TP − ALB) / BUN (blood urea nitrogen) / GLU (glucose) / NEFA (non-esterified fatty acid) / TG (triglyceride) / Na (sodium): unit not given here; conditions: for ALB (albumin) / BUN (blood urea nitrogen) / CPK (creatinine phosphokinase) / GLO (globulin = TP − ALB) / GLU (glucose) / K (potassium) / NEFA (non-esterified fatty acid) / Na (sodium) / TG (triglyceride) / TP (total protein): 0.1% NALT, serum
# Text: as §1, §2, §3
smiles,measurement,setting,value
"CC(=O)N[C@@H](Cc1c[nH]c2ccccc12)C(=O)O [NALT, N-acetyl-L-tryptophan]","All CBC test indicators, effect of treatment with 0.1% NALT",Korean native steers [1],No statistically significant difference
same,Values of hematological indicators (CBC) relative to normal ranges,Korean native steers [1],within normal ranges
same,GRA (0-2.4),Korean native steers [1]; Day 0,3.16 10^3/μL
same,HCT (23-33),Korean native steers [1]; Day 0,6.95%
same,HGB (8.0-15.0),Korean native steers [1]; Day 0,13.4 g/dL
same,LYM (2.5-7.5),Korean native steers [1]; Day 0,6.08 10^3/μL
same,MCH (14-18),Korean native steers [1]; Day 0,14.8 pg
same,MCHC (30-36),Korean native steers [1]; Day 0,38.3 g/dL
same,MCV (40-60),Korean native steers [1]; Day 0,38.8 fL
same,MON (0-0.84),Korean native steers [1]; Day 0,0.22 10^3/μL
same,MPV (4.5-7.6),Korean native steers [1]; Day 0,6.95 fL
same,PCT (0.15-0.40),Korean native steers [1]; Day 0,0.24%
same,PDW (56-80),Korean native steers [1]; Day 0,34.1%
same,PLT (100-800),Korean native steers [1]; Day 0,332 10^3/μL
same,RBC (5.0-10.0),Korean native steers [1]; Day 0,9.13 10^6/μL
same,RDW (16-20),Korean native steers [1]; Day 0,23.6%
same,WBC (4.0-12.0),Korean native steers [1]; Day 0,9.60 10^3/μL
same,GRA (0-2.4),Korean native steers [1]; Day 35,3.61 10^3/μL
same,HCT (23-33),Korean native steers [1]; Day 35,6.58%
same,HGB (8.0-15.0),Korean native steers [1]; Day 35,11.7 g/dL
same,LYM (2.5-7.5),Korean native steers [1]; Day 35,5.67 10^3/μL
same,MCH (14-18),Korean native steers [1]; Day 35,14.7 pg
same,MCHC (30-36),Korean native steers [1]; Day 35,37.1 g/dL
same,MCV (40-60),Korean native steers [1]; Day 35,40.0 fL
same,MON (0-0.84),Korean native steers [1]; Day 35,0.46 10^3/μL
same,MPV (4.5-7.6),Korean native steers [1]; Day 35,6.58 fL
same,PCT (0.15-0.40),Korean native steers [1]; Day 35,0.24%
same,PDW (56-80),Korean native steers [1]; Day 35,31.5%
same,PLT (100-800),Korean native steers [1]; Day 35,371 10^3/μL
same,RBC (5.0-10.0),Korean native steers [1]; Day 35,8.04 10^6/μL
same,RDW (16-20),Korean native steers [1]; Day 35,22.7%
same,WBC (4.0-12.0),Korean native steers [1]; Day 35,9.74 10^3/μL
same,GRA (0-2.4),Korean native steers [1]; Day 70,3.66 10^3/μL
same,HCT (23-33),Korean native steers [1]; Day 70,9.80%
same,HGB (8.0-15.0),Korean native steers [1]; Day 70,13.8 g/dL
same,LYM (2.5-7.5),Korean native steers [1]; Day 70,4.91 10^3/μL
same,MCH (14-18),Korean native steers [1]; Day 70,15.7 pg
same,MCHC (30-36),Korean native steers [1]; Day 70,37.1 g/dL
same,MCV (40-60),Korean native steers [1]; Day 70,42.5 fL
same,MON (0-0.84),Korean native steers [1]; Day 70,0.81 10^3/μL
same,MPV (4.5-7.6),Korean native steers [1]; Day 70,9.80 fL
same,PCT (0.15-0.40),Korean native steers [1]; Day 70,0.24%
same,PDW (56-80),Korean native steers [1]; Day 70,29.5%
same,PLT (100-800),Korean native steers [1]; Day 70,196 10^3/μL
same,RBC (5.0-10.0),Korean native steers [1]; Day 70,8.83 10^6/μL
same,RDW (16-20),Korean native steers [1]; Day 70,23.6%
same,WBC (4.0-12.0),Korean native steers [1]; Day 70,9.38 10^3/μL
same,"Hematological analysis indicators (Table 14), effect of treatment with 0.1% NALT",Korean native steers [2],No statistically significant difference
same,ALB (albumin),Korean native steers [2]; Day 0,3.3
same,BUN (blood urea nitrogen),Korean native steers [2]; Day 0,16.7
same,CPK (creatinine phosphokinase),Korean native steers [2]; Day 0,112
same,GLO (globulin = TP − ALB),Korean native steers [2]; Day 0,2.8
same,GLU (glucose),Korean native steers [2]; Day 0,49.6
same,K (potassium),Korean native steers [2]; Day 0,4.7
same,NEFA (non-esterified fatty acid),Korean native steers [2]; Day 0,139
same,Na (sodium),Korean native steers [2]; Day 0,141.3
same,TG (triglyceride),Korean native steers [2]; Day 0,25.5
same,TP (total protein),Korean native steers [2]; Day 0,6.1
same,ALB (albumin),Korean native steers [2]; Day 35,3.6
same,BUN (blood urea nitrogen),Korean native steers [2]; Day 35,19.8
same,CPK (creatinine phosphokinase),Korean native steers [2]; Day 35,267
same,GLO (globulin = TP − ALB),Korean native steers [2]; Day 35,2.9
same,GLU (glucose),Korean native steers [2]; Day 35,39.1
same,K (potassium),Korean native steers [2]; Day 35,4.8
same,NEFA (non-esterified fatty acid),Korean native steers [2]; Day 35,167
same,Na (sodium),Korean native steers [2]; Day 35,142.6
same,TG (triglyceride),Korean native steers [2]; Day 35,19.1
same,TP (total protein),Korean native steers [2]; Day 35,6.5
same,ALB (albumin),Korean native steers [2]; Day 70,3.5
same,BUN (blood urea nitrogen),Korean native steers [2]; Day 70,18.5
same,CPK (creatinine phosphokinase),Korean native steers [2]; Day 70,276
same,GLO (globulin = TP − ALB),Korean native steers [2]; Day 70,2.9
same,GLU (glucose),Korean native steers [2]; Day 70,56.3
same,K (potassium),Korean native steers [2]; Day 70,4.9
same,NEFA (non-esterified fatty acid),Korean native steers [2]; Day 70,168
same,Na (sodium),Korean native steers [2]; Day 70,141.1
same,TG (triglyceride),Korean native steers [2]; Day 70,22.1
same,TP (total protein),Korean native steers [2]; Day 70,6.3
